In patent US9469650B2, “Melampomagnolide B derivatives” (BOARD OF TRUSTEES OF THE UNIVERSITY OF ARKANSAS, priority 2013, dated 2016):
Read-outs that look alike come from different tables or passages of the source.

Key:
PC-3 = assay: panel of 60 human tumor cell lines, growth inhibition (Prostate Cancer); details: PC-3
786-0 = assay: panel of 60 human tumor cell lines, growth inhibition (Renal Cancer); details: 786-0
MOLT-4 = assay: panel of 60 human tumor cell lines, growth inhibition (Leukemia); details: MOLT-4
U251 = assay: panel of 60 human tumor cell lines, growth inhibition (CNS Cancer); details: U251
UACC-257 = assay: panel of 60 human tumor cell lines, growth inhibition (Melanoma); details: UACC-257
NCI-H226 = assay: panel of 60 human tumor cell lines, growth inhibition (Non-Small Cell Lung Cancer); details: NCI-H226
OVCAR-3 = assay: panel of 60 human tumor cell lines, growth inhibition (Ovarian Cancer); details: OVCAR-3
K-562 = assay: panel of 60 human tumor cell lines, growth inhibition (Leukemia); details: K-562

C=C1C(=O)O[C@H]2[C@H]1CC/C(COC(=O)N1CCN(C)CC1)=C\CC[C@@]1(C)O[C@@H]21 [JVM 2-44]
GI50 (PC-3): 21.8 µM
TGI (PC-3): 4.89E−5
Mean Optical Densities (PC-3; Log10 Concentration −4.0): 0.340
Percent Growth (PC-3; Log10 Concentration −4.0): −44%
Mean Optical Densities (PC-3; Log10 Concentration −5.0): 1.854
Percent Growth (PC-3; Log10 Concentration −5.0): 98%
Mean Optical Densities (PC-3; Log10 Concentration −6.0): 1.917
Percent Growth (PC-3; Log10 Concentration −6.0): 103%
Mean Optical Densities (PC-3; Log10 Concentration −7.0): 1.899
Percent Growth (PC-3; Log10 Concentration −7.0): 102%
Mean Optical Densities (PC-3; Log10 Concentration −8.0): 1.916
Percent Growth (PC-3; Log10 Concentration −8.0): 103%
GI50 (786-0): 6.53 µM
TGI (786-0): 2.42E−5
Mean Optical Densities (786-0; Log10 Concentration −4.0): 0.194
Percent Growth (786-0; Log10 Concentration −4.0): −64%
Mean Optical Densities (786-0; Log10 Concentration −5.0): 1.194
Percent Growth (786-0; Log10 Concentration −5.0): 40%
Mean Optical Densities (786-0; Log10 Concentration −6.0): 2.074
Percent Growth (786-0; Log10 Concentration −6.0): 94%
Mean Optical Densities (786-0; Log10 Concentration −7.0): 2.022
Percent Growth (786-0; Log10 Concentration −7.0): 91%
Mean Optical Densities (786-0; Log10 Concentration −8.0): 2.113
Percent Growth (786-0; Log10 Concentration −8.0): 96%
GI50 (MOLT-4): 5.49 µM
TGI (MOLT-4): 3.43E−5
Mean Optical Densities (MOLT-4; Log10 Concentration −4.0): 0.453
Percent Growth (MOLT-4; Log10 Concentration −4.0): −30%
Mean Optical Densities (MOLT-4; Log10 Concentration −5.0): 1.062
Percent Growth (MOLT-4; Log10 Concentration −5.0): 35%
Mean Optical Densities (MOLT-4; Log10 Concentration −6.0): 1.734
Percent Growth (MOLT-4; Log10 Concentration −6.0): 92%
Mean Optical Densities (MOLT-4; Log10 Concentration −7.0): 1.794
Percent Growth (MOLT-4; Log10 Concentration −7.0): 98%
Mean Optical Densities (MOLT-4; Log10 Concentration −8.0): 1.889
Percent Growth (MOLT-4; Log10 Concentration −8.0): 106%
GI50 (U251): 18.7 µM
TGI (U251): 4.08E−5
Mean Optical Densities (U251; Log10 Concentration −4.0): 0.206
Percent Growth (U251; Log10 Concentration −4.0): −58%
Mean Optical Densities (U251; Log10 Concentration −5.0): 1.893
Percent Growth (U251; Log10 Concentration −5.0): 90%
Mean Optical Densities (U251; Log10 Concentration −6.0): 2.002
Percent Growth (U251; Log10 Concentration −6.0): 97%
Mean Optical Densities (U251; Log10 Concentration −7.0): 2.003
Percent Growth (U251; Log10 Concentration −7.0): 97%
Mean Optical Densities (U251; Log10 Concentration −8.0): 2.013
Percent Growth (U251; Log10 Concentration −8.0): 98%
GI50 (UACC-257): 9.93 µM
TGI (UACC-257): 2.32E−5
Mean Optical Densities (UACC-257; Log10 Concentration −4.0): 0.150
Percent Growth (UACC-257; Log10 Concentration −4.0): −86%
Mean Optical Densities (UACC-257; Log10 Concentration −5.0): 1.662
Percent Growth (UACC-257; Log10 Concentration −5.0): 50%
Mean Optical Densities (UACC-257; Log10 Concentration −6.0): 2.046
Percent Growth (UACC-257; Log10 Concentration −6.0): 84%
Mean Optical Densities (UACC-257; Log10 Concentration −7.0): 2.135
Percent Growth (UACC-257; Log10 Concentration −7.0): 92%
Mean Optical Densities (UACC-257; Log10 Concentration −8.0): 2.160
Percent Growth (UACC-257; Log10 Concentration −8.0): 94%
GI50 (NCI-H226): 12.4 µM
TGI (NCI-H226): 3.73E−5
Mean Optical Densities (NCI-H226; Log10 Concentration −4.0): 0.601
Percent Growth (NCI-H226; Log10 Concentration −4.0): −45%
Mean Optical Densities (NCI-H226; Log10 Concentration −5.0): 2.002
Percent Growth (NCI-H226; Log10 Concentration −5.0): 60%
Mean Optical Densities (NCI-H226; Log10 Concentration −6.0): 2.540
Percent Growth (NCI-H226; Log10 Concentration −6.0): 95%
Mean Optical Densities (NCI-H226; Log10 Concentration −7.0): 2.533
Percent Growth (NCI-H226; Log10 Concentration −7.0): 94%
Mean Optical Densities (NCI-H226; Log10 Concentration −8.0): 2.561
Percent Growth (NCI-H226; Log10 Concentration −8.0): 96%
GI50 (HL-60(TB)): 2.53 µM
TGI (HL-60(TB)): 9.30E−6
Mean Optical Densities (HL-60(TB); Log10 Concentration −4.0): 0.925
Percent Growth (HL-60(TB); Log10 Concentration −4.0): −37%
Mean Optical Densities (HL-60(TB); Log10 Concentration −5.0): 1.432
Percent Growth (HL-60(TB); Log10 Concentration −5.0): −3%
Mean Optical Densities (HL-60(TB); Log10 Concentration −6.0): 2.594
Mean Optical Densities (HL-60(TB); Log10 Concentration −7.0): 2.607
Percent Growth (HL-60(TB); Log10 Concentration −7.0): 87%
Mean Optical Densities (HL-60(TB); Log10 Concentration −8.0): 2.812
Percent Growth (HL-60(TB); Log10 Concentration −8.0): 102%
CC50 (HL-60(TB); read-out: LC50): > 100 µM
GI50 (OVCAR-3): 3.86 µM
TGI (OVCAR-3): 1.59E−5
Mean Optical Densities (OVCAR-3; Log10 Concentration −4.0): 0.031
Percent Growth (OVCAR-3; Log10 Concentration −4.0): −94%
Mean Optical Densities (OVCAR-3; Log10 Concentration −5.0): 0.743
Percent Growth (OVCAR-3; Log10 Concentration −5.0): 24%
Mean Optical Densities (OVCAR-3; Log10 Concentration −6.0): 1.396
Percent Growth (OVCAR-3; Log10 Concentration −6.0): 87%
Mean Optical Densities (OVCAR-3; Log10 Concentration −7.0): 1.594
Percent Growth (OVCAR-3; Log10 Concentration −7.0): 107%
Mean Optical Densities (OVCAR-3; Log10 Concentration −8.0): 1.551
Percent Growth (OVCAR-3; Log10 Concentration −8.0): 102%
GI50 (K-562): 4.25 µM
TGI (K-562): 2.82E−5
Mean Optical Densities (K-562; Log10 Concentration −4.0): 0.152
Percent Growth (K-562; Log10 Concentration −4.0): −25%
Mean Optical Densities (K-562; Log10 Concentration −5.0): 0.394
Percent Growth (K-562; Log10 Concentration −5.0): 21%
Mean Optical Densities (K-562; Log10 Concentration −6.0): 1.109
Percent Growth (K-562; Log10 Concentration −6.0): 99%
Mean Optical Densities (K-562; Log10 Concentration −7.0): 1.030
Percent Growth (K-562; Log10 Concentration −7.0): 91%
Mean Optical Densities (K-562; Log10 Concentration −8.0): 1.141
Percent Growth (K-562; Log10 Concentration −8.0): 103%
